Source: patent US4946858A, “Novel spirosuccinimides as aldose reductase inhibitors and antihyperglycemic agents” (American Home Products Corporation, priority 1989, dated 1990)
Like-named read-outs stand apart in the source and are kept apart here.

Key:
aldose reductase = molecular target: T1, aldose reductase (Bos taurus, UniProt P16116); test: In vitro inhibition of aldose reductase (modified Hayman and Kinoshita procedure, enzyme from bovine lens); type: biochemical; conditions: read-out: % Inhibition in Vitro
T1 construct: preparation of the enzyme from bovine lens; from tissue; host or cells: bovine lens
Source text: In the present case the procedure of Hayman and Kinoshita was modified in that the final chromatography step was omitted in the preparation of the enzyme from bovine lens.

galactosemic rats = test: Lowering of galactitol (dulcitol) accumulation in tissues of galactosemic rats; type: in vivo, rat (Sprague-Dawley); conditions: for % Lowering of dulcitol accumulation In Vivo, % N (sciatic nerve) / % Lowering of dulcitol accumulation In Vivo, % D (diaphragm) / % Lowering of dulcitol accumulation In Vivo, % L (lens): 4 days, vs untreated galactosemic rats
Source text: The aldose reductase inhibiting property of the compounds of this invention and the utilization of the compounds in preventing, diminishing and alleviating diabetic complications by lowering polyol accumulation were also demonstrable in experiments using galactosemic rats, see Dvornik et al, Science, 182, 1146 (1973). Such experiments are exemplified hereinbelow after the listing of the following general comments pertaining to these experiments:
(a) Four or more groups of six male rats, 50-70 g, Sprague-Dawley strain, were used. The first group, the control group, was fed a mixture of laboratory chow (rodent Laboratory Chow, Purina) and glucose at 20% (w/w %) concentration. The untreated galactosemic group and the drug-treated groups were fed a similar diet in which galactose is substituted for glucose. The test compound was either admixed to the diet or administered by gavage. In experiments involving compound administration in the diet, the average dose administered was calculated from the actual food intake of the animals in each group. The concentration of galactose in the diet of the treated groups was the same as that for the untreated galactosemic groups.
(b) After four days, the amimals were killed by decapitation. The eyeballs were removed and punctured with a razor blade; the freed lenses were rolled gently on filter paper and weighed. The sciatic nerves were dissected as completely as possible and weighed. Both tissues when frozen can be kept up to two weeks before being analyzed for galactitol.
(c) The polyol determination was performed by a modification of the procedure of M. Kraml and L. Cosyns, Clin. Biochem., 2, 373 (1969). Only two minor reagent changes were made: (a) the rinsing mixture was an aqueous 5% (w/v) trichloroacetic acid solution and (b) the stock solution was prepared by dissolving 25 mg of dulcitol in 100 mL of an aqueous trichloroacetic acid solution. [N.B.: For each experiment the average value found in the tissue from rats fed the glucose diet was subtracted from the individual values found in the corresponding tissue in galactose-fed rats to obtain the amount of polyol accumulated.]
The figures under L, N, and D represent the percentage decrease of galactitol accumulation in the tissues of the lens, sciatic nerve, and diaphragm, respectively, for treated rats as compared to untreated rats.

| Compound | inhibition at 10 µM (aldose reductase; 10^-5 M) | inhibition at 1 µM (aldose reductase; 10^-6 M) | further results |
| --- | --- | --- | --- |
| CSc1ccc2c(c1)C(=O)N(C)C21CC(=O)NC1=O (stereo not drawn) [Example 130] | 87% | 60% |  |
| CN1C(=O)c2ccccc2C12CC(=O)NC2=O (stereo not drawn) [Example 117] |  | 45% |  |
| CCN1C(=O)c2ccc(Cl)cc2C12CC(=O)NC2=O (stereo not drawn) [Example 128] | 78% | 37% |  |
| CN1C(=O)c2ccc([N+](=O)[O-])cc2C12CC(=O)NC2=O (stereo not drawn) [Example 132] | 91% | 77% |  |
| CN1C(=O)c2cc(Cl)ccc2C12CC(=O)NC2=O (stereo not drawn) [Example 120, 5-chloro-2-methylspiro[1H-isoindole-1,3'-pyrrolidine]-2',3,5'(2H)-trione] | 88% | 72% | % Lowering of dulcitol accumulation In Vivo, % N (sciatic nerve) (galactosemic rats; 3 mg/kg, sciatic nerve): 21%; % Lowering of dulcitol accumulation In Vivo, % D (diaphragm) (galactosemic rats; 81 mg/kg): 80%; % Lowering of dulcitol accumulation In Vivo, % L (lens) (galactosemic rats; 81 mg/kg): 54%; % Lowering of dulcitol accumulation In Vivo, % N (sciatic nerve) (galactosemic rats; 81 mg/kg, sciatic nerve): 77% |
| Cc1ccc2c(c1)C(=O)N(C)C21CC(=O)NC1=O (stereo not drawn) [Example 133] | 89% | 61% |  |
| O=C1NC(=O)[C@@]2(CCOc3ccc(F)cc32)N1 [Sorbinil, [(4S)2,3-dihydro-6-fluorospiro[4H1-benzopyran-4,4imidazoli-dine2',5dione, reference compound] | 83% | 45% | % Lowering of dulcitol accumulation In Vivo, % D (diaphragm) (galactosemic rats; 4 mg/kg): 69%; % Lowering of dulcitol accumulation In Vivo, % L (lens) (galactosemic rats; 4 mg/kg): 46%; % Lowering of dulcitol accumulation In Vivo, % N (sciatic nerve) (galactosemic rats; 4 mg/kg, sciatic nerve): 55% |
| CN1C(=O)c2cc(-c3ccccc3)ccc2C12CC(=O)NC2=O (stereo not drawn) [Example 136] | 90% | 81% | % Lowering of dulcitol accumulation In Vivo, % D (diaphragm) (galactosemic rats; 3 mg/kg): 29%; % Lowering of dulcitol accumulation In Vivo, % D (diaphragm) (galactosemic rats; 6 mg/kg): 43%; % Lowering of dulcitol accumulation In Vivo, % L (lens) (galactosemic rats; 6 mg/kg): 13%; % Lowering of dulcitol accumulation In Vivo, % N (sciatic nerve) (galactosemic rats; 6 mg/kg, sciatic nerve): 27%; % Lowering of dulcitol accumulation In Vivo, % D (diaphragm) (galactosemic rats; 9 mg/kg): 55%; % Lowering of dulcitol accumulation In Vivo, % L (lens) (galactosemic rats; 9 mg/kg): 6%; % Lowering of dulcitol accumulation In Vivo, % N (sciatic nerve) (galactosemic rats; 9 mg/kg, sciatic nerve): 34% |
| COC(=O)c1ccc2c(c1)C1(CC(=O)NC1=O)N(C)C2=O (stereo not drawn) [Example 134] | 87% | 49% |  |
| CN1C(=O)c2cc3ccccc3cc2C12CC(=O)NC2=O (stereo not drawn) [Example 124, 2-methylspiro[1H-benz[f]isoindole-1,3'-pyrrolidine]-2',3,5'(2H)-trione] | 95% | 82% | % Lowering of dulcitol accumulation In Vivo, % D (diaphragm) (galactosemic rats; 10 mg/kg): 59%; % Lowering of dulcitol accumulation In Vivo, % L (lens) (galactosemic rats; 10 mg/kg): 14%; % Lowering of dulcitol accumulation In Vivo, % N (sciatic nerve) (galactosemic rats; 10 mg/kg, sciatic nerve): 47% |
| O=C1CC2(C(=O)N1)c1ccccc1S(=O)(=O)N2Cc1ccccc1 (stereo not drawn) [Example 103] | 45% | 5% |  |
| CN1C(=O)c2ccc(Cl)cc2C12CC(=O)NC2=O (stereo not drawn) [Example 102, 6-Chloro-2-methylspiro[1H-isoindole-1,3'-pyrrolidine]-2',3,5'(2H)-trione] | 91% | 80% | % Lowering of dulcitol accumulation In Vivo, % D (diaphragm) (galactosemic rats; 3 mg/kg): 43%; % Lowering of dulcitol accumulation In Vivo, % L (lens) (galactosemic rats; 3 mg/kg): 9%; % Lowering of dulcitol accumulation In Vivo, % N (sciatic nerve) (galactosemic rats; 3 mg/kg, sciatic nerve): 38%; comparison with sorbinil and tolrestat in the sciatic nerve (galactosemic rats; 3 mg/kg/day, sciatic nerve): comparable results to sorbinil at 4 mg/kg/day and tolrestat at 3 mg/kg/day in the sciatic nerve; % Lowering of dulcitol accumulation In Vivo, % D (diaphragm) (galactosemic rats; 25 mg/kg): 81%; % Lowering of dulcitol accumulation In Vivo, % L (lens) (galactosemic rats; 25 mg/kg): 51%; % Lowering of dulcitol accumulation In Vivo, % N (sciatic nerve) (galactosemic rats; 25 mg/kg, sciatic nerve): 84% |
| CN1C(=O)c2cc(Br)ccc2C12CC(=O)NC2=O (stereo not drawn) [Example 127] | 92% | 71% |  |
| COc1ccc2c(c1)C(=O)N(C)C21CC(=O)NC1=O (stereo not drawn) [Example 129] | 83% | 56% |  |
| COc1ccc2c(C(=S)N(C)CC(=O)O)cccc2c1C(F)(F)F [Tolrestat, reference compound] |  |  | % Lowering of dulcitol accumulation In Vivo, % D (diaphragm) (galactosemic rats; 3 mg/kg): 80%; % Lowering of dulcitol accumulation In Vivo, % N (sciatic nerve) (galactosemic rats; 3 mg/kg, sciatic nerve): 30% |
| CN1C2(CC(=O)NC2=O)c2ccccc2S1(=O)=O (stereo not drawn) [Example 101, 2,3-Dihydro-2-methylspiro[benzisothiazole-3,3'-pyrrolidine]-2',5'-dione 1,1-Dioxide] | 40% | 6% |  |
| Cc1cccc2c1C(=O)N(C)C21CC(=O)NC1=O (stereo not drawn) [Example 135, 2,4-dimethylspiro[1H-isoindole-1,3'-pyrrolidine]-2',3,5'(2H)-trione] | 84% | 59% | % Lowering of dulcitol accumulation In Vivo, % D (diaphragm) (galactosemic rats; 3 mg/kg): 37%; % Lowering of dulcitol accumulation In Vivo, % D (diaphragm) (galactosemic rats; 6 mg/kg): 57%; % Lowering of dulcitol accumulation In Vivo, % N (sciatic nerve) (galactosemic rats; 6 mg/kg, sciatic nerve): 50%; % Lowering of dulcitol accumulation In Vivo, % D (diaphragm) (galactosemic rats; 10 mg/kg): 69%; % Lowering of dulcitol accumulation In Vivo, % L (lens) (galactosemic rats; 10 mg/kg): 29%; % Lowering of dulcitol accumulation In Vivo, % N (sciatic nerve) (galactosemic rats; 10 mg/kg, sciatic nerve): 63% |
| CN1C(=O)c2c(Cl)cccc2C12CC(=O)NC2=O (stereo not drawn) [Example 126] | 85% |  | inhibition at 1 µM (aldose reductase): 65% |
| O=C1CC2(C(=O)N1)c1ccccc1S(=O)(=O)N2Cc1ccc2ccccc2c1Br (stereo not drawn) [Example 112] | 59% | 25% |  |
| O=C1CC2(C(=O)N1)c1cc(Cl)ccc1C(=O)N2Cc1ccc(Br)cc1F (stereo not drawn) [Example 121] | 85% | 70% |  |
| CN1C(=O)c2ccc(F)cc2C12CC(=O)NC2=O (stereo not drawn) [Example 123] |  | 74% | inhibition at 10 µM (aldose reductase): 93% |
| O=C1CC2(C(=O)N1)c1ccccc1S(=O)(=O)N2Cc1ccc2ccccc2c1 (stereo not drawn) [Example 113] | 57% | 20% |  |
| CCCN1C(=O)c2cc(Cl)c(Cl)cc2C12CC(=O)NC2=O (stereo not drawn) [Example 131] | 49% | 12% |  |
| CN1C(=O)c2cccc(Cl)c2C12CC(=O)NC2=O (stereo not drawn) [Example 125] | 88% | 57% | % Lowering of dulcitol accumulation In Vivo, % D (diaphragm) (galactosemic rats; 3 mg/kg): 23%; % Lowering of dulcitol accumulation In Vivo, % D (diaphragm) (galactosemic rats; 6 mg/kg): 37%; % Lowering of dulcitol accumulation In Vivo, % L (lens) (galactosemic rats; 6 mg/kg): 7%; % Lowering of dulcitol accumulation In Vivo, % N (sciatic nerve) (galactosemic rats; 6 mg/kg, sciatic nerve): 21%; % Lowering of dulcitol accumulation In Vivo, % D (diaphragm) (galactosemic rats; 10 mg/kg): 47%; % Lowering of dulcitol accumulation In Vivo, % L (lens) (galactosemic rats; 10 mg/kg): 13%; % Lowering of dulcitol accumulation In Vivo, % N (sciatic nerve) (galactosemic rats; 10 mg/kg, sciatic nerve): 32% |
